Test results: patent US20250214991A1 (Oncopia Therapeutics, Inc. d/b/a/ SK Life Science Labs, priority 2022, published 2025)

Key:
CRBN/DDB1 = CRBN/DDB1 (Homo sapiens (Human), UniProt Q96SW2); assay: IC50 measurements for binding to CRBN/DDB1 (HTRF); conditions: His tagged CRBN+DDB, Cy5-labeled Thalidomide probe, one hour
How it was run: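 HTRF competition binding with 2 nM His-tagged CRBN-DDB1 complex, 60 nM Cy5-thalidomide probe and 0.4 nM anti-His Tb cryptate in 50 mM HEPES pH 7.5, 1 mM TCEP, 0.01% Brij-35, 50 mM NaCl, 0.1% BSA. Read after 1 h at room temperature; IC50 from four-parameter dose-response fit.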

IKZF2 [1] = molecular target: T1, IKZF2 (Homo sapiens (Human), UniProt Q96SW2+Q9UKS7); assay: In vitro IKZF2 FACS Assay in Jurkat cells; assay type: cell-based; conditions: 24 hrs; for DC50: half maximal degradation concentration; for Dmax: maximal degradation percentage
T1 sequence (Q9UKS7 whole entry): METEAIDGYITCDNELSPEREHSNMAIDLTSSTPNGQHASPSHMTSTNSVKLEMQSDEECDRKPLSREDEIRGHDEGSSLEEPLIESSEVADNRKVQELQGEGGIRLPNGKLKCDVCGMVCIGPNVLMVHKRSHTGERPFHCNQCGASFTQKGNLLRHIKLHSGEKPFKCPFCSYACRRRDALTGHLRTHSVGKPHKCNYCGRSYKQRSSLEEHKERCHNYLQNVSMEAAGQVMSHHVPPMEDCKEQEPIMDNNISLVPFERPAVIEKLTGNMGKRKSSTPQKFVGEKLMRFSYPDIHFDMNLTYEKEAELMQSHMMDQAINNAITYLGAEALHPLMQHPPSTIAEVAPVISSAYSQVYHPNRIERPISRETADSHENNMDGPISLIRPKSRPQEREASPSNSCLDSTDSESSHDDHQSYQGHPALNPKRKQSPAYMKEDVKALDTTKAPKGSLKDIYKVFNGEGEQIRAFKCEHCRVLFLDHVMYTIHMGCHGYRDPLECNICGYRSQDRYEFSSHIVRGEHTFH
T1 sequence (Q96SW2 whole entry): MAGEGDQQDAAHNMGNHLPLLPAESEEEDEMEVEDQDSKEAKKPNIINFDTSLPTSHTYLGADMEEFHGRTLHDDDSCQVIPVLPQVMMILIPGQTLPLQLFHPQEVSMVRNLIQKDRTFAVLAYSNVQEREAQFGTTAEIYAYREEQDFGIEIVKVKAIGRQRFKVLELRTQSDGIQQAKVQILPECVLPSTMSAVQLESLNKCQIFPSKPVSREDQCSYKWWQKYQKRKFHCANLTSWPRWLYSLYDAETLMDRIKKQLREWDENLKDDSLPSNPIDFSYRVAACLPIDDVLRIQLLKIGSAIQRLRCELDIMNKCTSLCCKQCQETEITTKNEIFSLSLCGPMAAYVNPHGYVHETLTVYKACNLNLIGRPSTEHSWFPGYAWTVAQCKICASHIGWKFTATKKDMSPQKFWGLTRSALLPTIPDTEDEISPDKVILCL
T1 sequence (Q16531 2-1140 partner): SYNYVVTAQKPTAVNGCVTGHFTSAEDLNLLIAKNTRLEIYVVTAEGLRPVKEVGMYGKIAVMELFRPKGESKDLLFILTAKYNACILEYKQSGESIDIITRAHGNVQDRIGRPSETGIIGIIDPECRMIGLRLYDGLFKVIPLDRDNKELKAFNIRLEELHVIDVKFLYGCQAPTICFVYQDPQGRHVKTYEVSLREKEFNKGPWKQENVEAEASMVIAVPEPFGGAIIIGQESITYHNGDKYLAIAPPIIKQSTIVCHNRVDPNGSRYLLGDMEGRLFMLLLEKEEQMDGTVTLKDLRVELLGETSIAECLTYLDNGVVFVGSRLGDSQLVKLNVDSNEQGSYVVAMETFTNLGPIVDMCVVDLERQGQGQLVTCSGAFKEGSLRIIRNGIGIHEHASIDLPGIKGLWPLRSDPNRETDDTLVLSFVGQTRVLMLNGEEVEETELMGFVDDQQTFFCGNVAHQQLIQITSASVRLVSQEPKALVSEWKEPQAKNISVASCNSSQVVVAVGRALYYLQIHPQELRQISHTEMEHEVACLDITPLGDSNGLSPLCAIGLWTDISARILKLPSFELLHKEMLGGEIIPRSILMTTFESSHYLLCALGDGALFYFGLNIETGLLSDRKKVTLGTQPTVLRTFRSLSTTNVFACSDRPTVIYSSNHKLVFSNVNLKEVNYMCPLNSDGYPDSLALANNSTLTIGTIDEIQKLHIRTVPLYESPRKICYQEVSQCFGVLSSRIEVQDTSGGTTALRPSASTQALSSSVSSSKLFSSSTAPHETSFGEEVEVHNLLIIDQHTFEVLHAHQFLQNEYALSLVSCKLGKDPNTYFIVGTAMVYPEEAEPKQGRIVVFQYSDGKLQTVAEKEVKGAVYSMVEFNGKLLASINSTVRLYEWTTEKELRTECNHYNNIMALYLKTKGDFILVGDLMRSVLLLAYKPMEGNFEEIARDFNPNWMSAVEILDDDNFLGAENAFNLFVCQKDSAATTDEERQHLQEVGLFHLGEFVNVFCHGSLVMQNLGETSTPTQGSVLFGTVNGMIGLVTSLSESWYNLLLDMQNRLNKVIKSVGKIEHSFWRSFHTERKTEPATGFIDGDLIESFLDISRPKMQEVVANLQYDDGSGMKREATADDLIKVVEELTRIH
Experimental: In vitro IKZF2 FACS Assay
DC50, A: <1 nM; B: 1-10 nM; C: 10-100 nM; D: 100-1000 nM; E: >1000 nM. Dmax, A: >80%; B: 60-80%; C: 40-60%; D: 20-40%; E: <20%.

IKZF2 [2] = molecular target: T1, IKZF2; assay: In vitro IKZF2 HiBit Assay (HEK293T Flp-in-HiBiT cells); assay type: cell-based; conditions: HEK293T Flp-in-HiBiT cells, 6 hrs incubation; for DC50: read-out: IKZF2 HiBit DC50; for Dmax: HEK-293T, read-out: IKZF2 HiBit Dmax (%)
How it was run: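 HEK293T Flp-in cells carrying an endogenous N-terminal HiBiT tag on IKZF2 were exposed to compound for 6 h at 0.1% DMSO. The dilution series was 11 doses at 3-fold, diluted from 1 mM. Nano-Glo HiBiT lytic luminescence, normalized to DMSO, gave DC50 for 50% degradation and Dmax across the concentration range, both reported in letter bins.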

IKZF1 = IKZF1 (Homo sapiens (Human), UniProt Q13422+Q96SW2); assay: In vitro IKZF1 HiBit Assay (HEK293T Flp-in-HiBiT-IKZF1 stable cell line); assay type: cell-based; conditions: HEK293T Flp-in-HiBiT-IKZF1 stable cell line, 6 hrs incubation; for DC50: read-out: IKZF1 HiBit DC50; for Dmax: HEK-293T, read-out: IKZF1 HiBit Dmax (%)
Chain of IKZF1 (Q13422 whole entry): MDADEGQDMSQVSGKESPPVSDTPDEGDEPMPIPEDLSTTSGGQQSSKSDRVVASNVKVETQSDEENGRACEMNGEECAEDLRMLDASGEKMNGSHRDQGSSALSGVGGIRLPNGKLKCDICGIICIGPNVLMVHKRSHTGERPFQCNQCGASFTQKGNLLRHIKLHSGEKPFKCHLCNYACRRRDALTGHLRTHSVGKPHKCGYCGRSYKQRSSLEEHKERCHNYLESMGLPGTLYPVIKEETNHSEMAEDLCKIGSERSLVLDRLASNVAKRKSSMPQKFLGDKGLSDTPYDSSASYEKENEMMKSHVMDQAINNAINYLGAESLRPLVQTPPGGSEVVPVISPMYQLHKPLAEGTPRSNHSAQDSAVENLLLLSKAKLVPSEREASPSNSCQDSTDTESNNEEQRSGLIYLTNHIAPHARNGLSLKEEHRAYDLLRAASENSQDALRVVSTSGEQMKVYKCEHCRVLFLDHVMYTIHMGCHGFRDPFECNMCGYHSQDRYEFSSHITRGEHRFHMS
Chain of IKZF1 (Q96SW2 whole entry): as the sequence (Q96SW2 whole entry) above
Chain of IKZF1 (Q16531 2-1140 partner): as the sequence (Q16531 2-1140 partner) above
How it was run: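 HEK293T Flp-in cells carrying N-terminal HiBiT-tagged IKZF1 were exposed to compound (0.1% DMSO) for 6 h at 3000 cells/well. HiBiT luminescence was read after lytic LgBiT detection. DC50 and Dmax were taken from DMSO-normalized dose-response curves.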

Chain of CRBN/DDB1 (Q96SW2 whole entry, species assumed): as the sequence (Q96SW2 whole entry) above
Chain of CRBN/DDB1 (Q16531 whole entry partner, species assumed): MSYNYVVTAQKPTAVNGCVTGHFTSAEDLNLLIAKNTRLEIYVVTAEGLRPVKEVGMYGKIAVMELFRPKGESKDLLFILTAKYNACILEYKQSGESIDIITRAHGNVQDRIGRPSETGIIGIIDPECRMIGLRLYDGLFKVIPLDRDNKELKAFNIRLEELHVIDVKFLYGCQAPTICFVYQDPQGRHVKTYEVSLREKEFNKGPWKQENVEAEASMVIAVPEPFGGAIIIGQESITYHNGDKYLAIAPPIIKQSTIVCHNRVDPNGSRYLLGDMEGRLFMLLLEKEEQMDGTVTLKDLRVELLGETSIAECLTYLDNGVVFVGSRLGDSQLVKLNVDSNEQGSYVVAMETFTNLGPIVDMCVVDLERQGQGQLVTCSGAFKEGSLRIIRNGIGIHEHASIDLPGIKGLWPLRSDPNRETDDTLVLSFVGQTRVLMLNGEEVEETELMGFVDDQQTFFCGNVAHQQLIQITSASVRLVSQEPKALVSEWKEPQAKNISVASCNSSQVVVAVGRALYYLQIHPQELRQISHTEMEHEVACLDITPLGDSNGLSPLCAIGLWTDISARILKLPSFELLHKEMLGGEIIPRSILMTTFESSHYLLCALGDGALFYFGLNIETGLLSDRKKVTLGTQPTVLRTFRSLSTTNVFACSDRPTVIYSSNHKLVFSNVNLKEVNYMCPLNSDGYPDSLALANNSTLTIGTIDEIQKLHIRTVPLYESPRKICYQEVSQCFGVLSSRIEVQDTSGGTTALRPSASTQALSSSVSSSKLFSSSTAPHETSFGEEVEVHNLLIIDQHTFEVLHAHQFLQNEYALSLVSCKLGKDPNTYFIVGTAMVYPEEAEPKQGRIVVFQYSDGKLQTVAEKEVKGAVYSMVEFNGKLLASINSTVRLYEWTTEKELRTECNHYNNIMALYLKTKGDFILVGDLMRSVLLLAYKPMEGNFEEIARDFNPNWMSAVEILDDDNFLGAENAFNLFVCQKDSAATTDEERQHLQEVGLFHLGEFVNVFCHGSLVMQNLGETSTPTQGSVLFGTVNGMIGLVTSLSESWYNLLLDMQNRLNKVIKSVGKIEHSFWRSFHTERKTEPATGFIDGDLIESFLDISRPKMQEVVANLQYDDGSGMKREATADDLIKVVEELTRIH

Row | SMILES | IC50 (CRBN/DDB1) | DC50 (IKZF2 [1]) | Dmax (IKZF2 [1]) | DC50 (IKZF2 [2]) | Dmax (IKZF2 [2]) | DC50 (IKZF1) | Dmax (IKZF1)
1 | Nc1n[nH]c2c(CN3CCC(O)CC3)cc(-c3ccc4c(c3)CN(C3CCC(=O)NC3=O)C4=O)nc12 (centres unmarked) [Example 205, 3-(5-(3-amino-7-((4-hydroxypiperidin-1-yl)methyl)-1H-pyrazolo[4,3-b]pyridin-5-yl)-1-oxoisoindolin-2-yl) piperidine-2,6-dione] | 500 to 1000 nM | 100 to 1000 nM | 60 to 80% | 10 to 100 nM | 60 to 80% | 1000 to 10000 nM | 20 to 40%
2 | O=C1CCC(N2Cc3cc(-c4cc(CN5CCCC5)c5ncn(C6CCC6)c5n4)ccc3C2=O)C(=O)N1 (centres unmarked) [Example 209, 3-(5-(3-cyclobutyl-7-(pyrrolidin-1-ylmethyl)-3H-imidazo[4,5-b]pyridin-5-yl)-1-oxoisoindolin-2-yl) piperidine-2,6-dione] | 1000 to 5000 nM | 10 to 100 nM | > 80% | 1 to 10 nM | > 80% | > 10000 nM | < 20%
3 | Nc1nn(C2CC2)c2c(CN3CCCC3)cc(-c3ccc4c(c3)CN(C3CCC(=O)NC3=O)C4=O)nc12 (centres unmarked) [Example 210, 3-(5-(3-amino-1-cyclopropyl-7-(pyrrolidin-1-ylmethyl)-1H-pyrazolo[4,3-b]pyridin-5-yl)-1-oxoisoindolin-2-yl) piperidine-2,6-dione] | 500 to 1000 nM | 1 to 10 nM | > 80% | 1 to 10 nM | > 80% | 100 to 1000 nM | 40 to 60%
4 | O=C1CCC(N2Cc3cc(-c4cc(CN5CCCC5)c5ncn(C6COC6)c5n4)ccc3C2=O)C(=O)N1 (centres unmarked) [Example 211, 3-(5-(3-(oxetan-3-yl)-7-(pyrrolidin-1-ylmethyl)-3H-imidazo[4,5-b]pyridin-5-yl)-1-oxoisoindolin-2-yl) piperidine-2,6-dione] | 500 to 1000 nM | 10 to 100 nM | 60 to 80% | 10 to 100 nM | 60 to 80% | > 10000 nM | < 20%
5 | Nc1n[nH]c2c(CN3CCC(F)CC3)cc(-c3ccc4c(c3)CN(C3CCC(=O)NC3=O)C4=O)nc12 (centres unmarked) [Example 212, 3-(5-(3-amino-7-((4-fluoropiperidin-1-yl)methyl)-1H-pyrazolo[4,3-b]pyridin-5-yl)-1-oxoisoindolin-2-yl) piperidine-2,6-dione] | < 100 nM | 10 to 100 nM | > 80% | 1 to 10 nM | 60 to 80% | 1 to 10 nM | 20 to 40%
6 | Nc1n[nH]c2c(CN3CC4COCC(C4)C3)cc(-c3ccc4c(c3)CN(C3CCC(=O)NC3=O)C4=O)nc12 (centres unmarked) [Example 215, 3-(5-(7-((3-oxa-7-azabicyclo[3.3.1]nonan-7-yl)methyl)-3-amino-1H-pyrazolo[4,3-b]pyridin-5-yl)-1-oxoisoindolin-2-yl) piperidine-2,6-dione] | 100 to 500 nM | 10 to 100 nM | > 80% | 10 to 100 nM | > 80% | 100 to 1000 nM | 20 to 40%
7 | Nc1n[nH]c2c(CN3CCC4(CC3)COC4)cc(-c3ccc4c(c3)CN(C3CCC(=O)NC3=O)C4=O)nc12 (centres unmarked) [Example 216, 3-(5-(7-((2-oxa-7-azaspiro[3.5]nonan-7-yl)methyl)-3-amino-1H-pyrazolo[4,3-b]pyridin-5-yl)-1-oxoisoindolin-2-yl) piperidine-2,6-dione] | 1000 to 5000 nM | 100 to 1000 nM | 60 to 80% | 10 to 100 nM | 60 to 80% | 100 to 1000 nM | 20 to 40%
8 | O=C1CCC(N2Cc3cc(-c4nc(CN5CCCC5)c5ccn(C6COC6)c5n4)ccc3C2=O)C(=O)N1 (centres unmarked) [Example 218, 3-(5-(7-(oxetan-3-yl)-4-(pyrrolidin-1-ylmethyl)-7H-pyrrolo[2,3-d]pyrimidin-2-yl)-1-oxoisoindolin-2-yl) piperidine-2,6-dione] | 500 to 1000 nM | 10 to 100 nM | 60 to 80% | 1 to 10 nM | 60 to 80% | 100 to 1000 nM | 20 to 40%
